Read-outs that look alike come from different tables or passages of the source.
What was measured:
C. difficile = assay: MIC via agar dilution, 110 genetically distinct clinical isolates of C. difficile; assay type: cell-based
[1] = test system: C. difficile, C. perfringens and C. sordellii; assay: organism not typed; assay type: cell-based
[2] = Clostridioides difficile, 110 clinical isolates, agar dilution

CCc1c(Cl)c(O)c(Cl)c(O)c1C(=O)O[C@H]1[C@H](O)[C@H](OC)[C@H](OC/C2=C\C=C\C[C@H](O)/C(C)=C/[C@H](CC)C(O[C@@H]3OC(C)(C)[C@@H](OC(=O)C(C)C)[C@H](O)[C@@H]3O)/C(C)=C/C(C)=C/C[C@@H](C(C)O)OC2=O)O[C@@H]1C (some centres unmarked) [Compound I]
0.015 µg/mL: MIC (C. difficile; Clostridioides difficile, isolate ORG ID R6 6015, read-out: MIC)
0.062 to 0.25 µg/mL: MIC90 [1]
0.03 µg/mL: MIC (C. difficile; Clostridioides difficile, isolate ORG ID D1 1360, read-out: MIC) | MIC (C. difficile; Clostridioides difficile, isolate ORG ID J7 4224, read-out: MIC) | MIC (C. difficile; Clostridioides difficile, isolate ORG ID Z1 3036, read-out: MIC)
0.25 µg/mL: MIC (C. difficile; Clostridioides difficile, isolate ORG ID CB1 1584, read-out: MIC) | MIC (C. difficile; Clostridioides difficile, isolate ORG ID CL1 3851, read-out: MIC) | MIC (C. difficile; Clostridioides difficile, isolate ORG ID CN1 667, read-out: MIC) | MIC (C. difficile; Clostridioides difficile, isolate ORG ID CO1 4652, read-out: MIC)
0.125 µg/mL: MIC50 (C. difficile; [2]) | MIC90 (C. difficile; [2]) | MIC (C. difficile; isolate ORG ID 64 5940) | MIC (C. difficile; isolate ORG ID 67 6367) | MIC (C. difficile; isolate ORG ID 70 6376) | MIC (C. difficile; isolate ORG ID 71 6379) | MIC (C. difficile; isolate ORG ID 72 6380) | MIC (C. difficile; isolate ORG ID 75 6388) | MIC (C. difficile; isolate ORG ID 76 6389) | MIC (C. difficile; isolate ORG ID 80 6327) | MIC (C. difficile; isolate ORG ID 81 6328) | MIC (C. difficile; isolate ORG ID 84 6331) | MIC (C. difficile; isolate ORG ID 87 6334) | MIC (C. difficile; isolate ORG ID 88 6335) | MIC (C. difficile; isolate ORG ID 90 6338) | MIC (C. difficile; isolate ORG ID 91 6339) | MIC (C. difficile; isolate ORG ID 93 6341) | MIC (C. difficile; isolate ORG ID 95 6347) | MIC (C. difficile; isolate ORG ID 98 6350) | MIC (C. difficile; isolate ORG ID 100 6353) | MIC (C. difficile; isolate ORG ID A1 1535) | MIC (C. difficile; isolate ORG ID AF1 1808) | MIC (C. difficile; isolate ORG ID AG1 3044) | MIC (C. difficile; isolate ORG ID AH1 3430) | MIC (C. difficile; isolate ORG ID AN1 464) | MIC (C. difficile; isolate ORG ID AO1 287) | MIC (C. difficile; isolate ORG ID AS1 4099) | MIC (C. difficile; isolate ORG ID AT1 1216) | MIC (C. difficile; isolate ORG ID AW1 4501) | MIC (C. difficile; isolate ORG ID BE1 4307) | MIC (C. difficile; isolate ORG ID BI1 1675) | MIC (C. difficile; isolate ORG ID BK1 4291) | MIC (C. difficile; isolate ORG ID BL1 716) | MIC (C. difficile; isolate ORG ID BN1 1322) | MIC (C. difficile; isolate ORG ID BV1 1183) | MIC (C. difficile; isolate ORG ID BW1 3130) | MIC (C. difficile; isolate ORG ID BX1 4271) | MIC (C. difficile; isolate ORG ID CF1 5922) | MIC (C. difficile; isolate ORG ID CG1 1566) | MIC (C. difficile; isolate ORG ID CJ1 893) | MIC (C. difficile; isolate ORG ID CP1 5491) | MIC (C. difficile; isolate ORG ID G1 1077) | MIC (C. difficile; isolate ORG ID I1 1389) | MIC (C. difficile; isolate ORG ID K1 4305) | MIC (C. difficile; isolate ORG ID K14 5780) | MIC (C. difficile; isolate ORG ID L1 1423) | MIC (C. difficile; isolate ORG ID N1 471) | MIC (C. difficile; isolate ORG ID R1 397) | MIC (C. difficile; isolate ORG ID V1 1521) | MIC (C. difficile; isolate ORG ID W1 3931) | MIC (C. difficile; isolate ORG ID X1 1890)
0.06 µg/mL: MIC (C. difficile; Clostridioides difficile, isolate ORG ID BH1 4506, read-out: MIC) | MIC (C. difficile; Clostridioides difficile, isolate ORG ID BM1 1453, read-out: MIC) | MIC (C. difficile; Clostridioides difficile, isolate ORG ID BR1 1321, read-out: MIC) | MIC (C. difficile; Clostridioides difficile, isolate ORG ID BT1 706, read-out: MIC) | MIC (C. difficile; Clostridioides difficile, isolate ORG ID E1 816, read-out: MIC) | MIC (C. difficile; Clostridioides difficile, isolate ORG ID J1 5971, read-out: MIC) | MIC (C. difficile; Clostridioides difficile, isolate ORG ID J9 4478, read-out: MIC) | MIC (C. difficile; Clostridioides difficile, isolate ORG ID O1 1861, read-out: MIC) | MIC (C. difficile; Clostridioides difficile, isolate ORG ID Y1 5639, read-out: MIC) | MIC (C. difficile; Clostridioides difficile, isolate ORG ID Y2 1459, read-out: MIC)
0.08 µg/mL: MIC (C. difficile; Clostridioides difficile, 110 clinical isolates, agar dilution, read-out: Geometric Mean (MIC))

Source: patent publication US20070173462A1, “Treatment of diseases associated with the use of antibiotics” (Optimer Pharmaceuticals, Inc., priority 2004, published 2007)
